{"source": "patent US6344215B1", "about": "“Methylphenidate modified release formulations” (Eurand America, Inc., priority 2000, dated 2002)", "origin": "cited, not measured here", "details": "gastrointestinal tract", "note": "Where a name gives a salt, the structure may show the parent alone."}
{"smiles": "COC(=O)C(c1ccccc1)C1CCCCN1", "note": "(stereo not shown) [Methylphenidate Hydrochloride]", "values": [{"measurement": "absorption", "value": "well absorbed throughout the gastrointestinal tract"}]}
